Test results: patent US9981969B2, “Imidazole derivatives and methods of use thereof for improving the pharmacokinetics of a drug” (MERCK SHARP & DOHME CORP., priority 2013, dated 2018)

Tests used:
CYP3A4 = molecular target: T1, CYP3A4 (Homo sapiens, UniProt P08684); experiment: Cocktail assay for CYPs in human liver microsomes, midazolam 1′-hydroxylation (3A4); format: biochemical; details: 2 μM midazolam, 10 min at 37° C.
T1 construct: 0.1 mg/mL protein human liver microsomes (BD Gentest); tissue BD Gentest; host or cells: human liver microsomes
Description: (§1) This assay was performed in a standard 96-well plate design. IC50 values were calculated from the percent inhibition observed for each test compound at 6 concentrations (for example, 0.0032, 0.016, 0.08, 0.4, 2 and 10 μM). The incubation substrate mix contains 10 μM phenacetin (1A2), 5 μM diclofenac (2C9), 30 μM mephenytoin (2C19), 5 μM dextromethorphan (2D6) and 2 μM midazolam (3A4), 0.1 mg/mL protein human liver microsomes (BD Gentest), 1 mM NAPDH, 3.3 mM MgCl2 and 100 mM potassium phosphate buffer (pH 7.4). The production of the metabolite of each probe substrate was determined after incubation for 10 min at 37° C. Quantitation of the metabolite peak area ratio against an internal standard (tolbutamide) was determined by LC/MS/MS analysis following acetonitrile treatment of the incubations.
(§2) Samples were analyzed in the MRM mode with a SCIEX API-4000 mass spectrometer (Applied Biosystems, Foster City, Calif.), with a Shimadzu LC-20 AD pump (Shimadzu corporation, Kyoto, JP) and a CTC PAL autosampler (Agilent Technologies, Switzerland). A Phenomenex, Luna, 5 μm, 100A, 2.00×30 mm HPLC column was used for the separation. The mobile phases were: (A) 0.1% formic acid in water and (B) 0.1% formic acid in acetonitrile. The binary gradient was as follows. AutoSampler: CTC PAL
(§3) The peak area ratio of the analyte to the internal standard was used to quantify the metabolite. The values of peak area ratios in the presence of test compound were compared to those of maximum or minimum controls and were expressed as % inhibition by interpolating between the maximum and minimum peak area ratios. Incubations with no inhibitor were defined as the maxima. The following equation was used to calculate the % inhibition: [1−[(X−Low control)/(High control−Low control)]]*100 For the IC50 calculation, SigmaPlot was used to plot the mean % inhibition versus the test compound concentrations and for non-linear regression analysis of the data. Depending on the range of data points defining the inhibition curve, the data may have been fit to the 4-parameter logistic equation.

human CYP11B1 = molecular target: T2, human CYP11B1 (Homo sapiens, UniProt P15538); experiment: IC50 vs CYP11B1 by measurement of cortisol synthesis in V79 cells; format: cell-based; details: V79 cells expressing human CYP11B1, 1500 nM RSS, cortisol HTRF
T2 construct: expressed in transfected cells
T2 sequence (P15538 25-503): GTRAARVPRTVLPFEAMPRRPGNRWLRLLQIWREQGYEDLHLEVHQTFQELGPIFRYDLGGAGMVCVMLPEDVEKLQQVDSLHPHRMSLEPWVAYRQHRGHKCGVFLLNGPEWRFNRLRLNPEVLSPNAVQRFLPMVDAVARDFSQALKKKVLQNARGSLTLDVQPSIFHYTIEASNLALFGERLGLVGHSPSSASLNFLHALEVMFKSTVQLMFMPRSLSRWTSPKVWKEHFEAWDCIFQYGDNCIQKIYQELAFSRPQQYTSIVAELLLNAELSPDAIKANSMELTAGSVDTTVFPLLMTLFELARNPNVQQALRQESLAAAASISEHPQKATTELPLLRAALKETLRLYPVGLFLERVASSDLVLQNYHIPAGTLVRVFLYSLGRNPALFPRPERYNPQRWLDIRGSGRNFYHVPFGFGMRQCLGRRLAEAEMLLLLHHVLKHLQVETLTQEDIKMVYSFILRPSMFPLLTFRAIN
Description: (§4) This assay was performed in a standard 384-well plate design using cultured V79 cells stably expressing human CYP11B1 or human CYP11B2. Test compounds at 10 concentrations (for example, 10000, 3333.3, 1111.1, 370.4, 123.5, 41.2, 13.7, 4.6, 1.5 and 0.5 nM) were added in 384-well plate after the cell-seeding procedure. The incubation substrate contains 1500 nM RSS for CYP11B1 assay/750 nM DOC for CYP11B2 assay. The Cortisol/Aldosterone production of cell culture supernatant was determined by Cortisol/Aldosterone HTRF kit after for about 15 hours incubation at RT (protect from light). IC50 (nM) values were calculated from the percent inhibition observed for each test compound at 10 concentrations.
(§5) The assay plate was read using Envision (Perkin Elmer, Waltham, Mass.) at 665 nm and 590 nm (using Filter Barcode of 217#, 205#; Mirror Barcode of 446#).
(§6) Data are analyzed using Assay Data Analyzer. All ratio data (665 nm/590 nm) are back calculated according to the standard curve, resulting in Cortisol/Aldosterone concentrations. IC50 (nM) values are reported as the Inflection Point (IP) of a four parameter fit of the titration data.
(§7) The following equation was used to calculate the % inhibition: % Activity=100×{1−(Sample_back calculated Cortisol/Aldosterone concentration−LC_back calculated Cortisol/Aldosterone concentration)/(HC_back calculated Cortisol/Aldosterone concentration−LC_back calculated Cortisol/Aldosterone concentration)} Curve Fitting: Four Parameter Logistic: […]

CYP2C19 = molecular target: T3, CYP2C19 (Homo sapiens, UniProt P33261); experiment: Cocktail assay for CYPs in human liver microsomes, mephenytoin 4′-hydroxylation (2C19); format: biochemical; details: 30 μM mephenytoin, 10 min at 37° C.
T3 construct: 0.1 mg/mL protein human liver microsomes (BD Gentest); tissue BD Gentest; host or cells: human liver microsomes
Description: as §1, §2, §3

CYP1A2 = molecular target: T4, CYP1A2 (Homo sapiens, UniProt P05177); experiment: Cocktail assay for CYPs in human liver microsomes, phenacetin O-deethylation (1A2); format: biochemical; details: 10 μM phenacetin, 10 min at 37° C.
T4 construct: 0.1 mg/mL protein human liver microsomes (BD Gentest); tissue BD Gentest; host or cells: human liver microsomes
T4 sequence (P05177 1-516): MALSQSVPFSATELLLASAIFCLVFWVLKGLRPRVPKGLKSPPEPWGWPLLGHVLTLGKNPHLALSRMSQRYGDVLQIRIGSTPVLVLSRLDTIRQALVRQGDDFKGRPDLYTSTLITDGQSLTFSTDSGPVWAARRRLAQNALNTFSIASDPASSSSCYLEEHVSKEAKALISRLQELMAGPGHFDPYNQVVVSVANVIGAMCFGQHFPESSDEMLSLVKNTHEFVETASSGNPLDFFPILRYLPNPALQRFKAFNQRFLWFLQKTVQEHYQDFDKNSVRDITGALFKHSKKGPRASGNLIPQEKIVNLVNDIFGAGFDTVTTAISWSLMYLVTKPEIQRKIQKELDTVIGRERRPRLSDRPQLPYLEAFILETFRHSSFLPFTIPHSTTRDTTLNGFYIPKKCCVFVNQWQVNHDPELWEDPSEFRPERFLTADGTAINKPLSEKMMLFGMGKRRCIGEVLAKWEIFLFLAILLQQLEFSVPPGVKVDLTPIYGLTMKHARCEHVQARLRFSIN
Description: as §1, §2, §3

CYP2C9 = molecular target: T5, CYP2C9 (Homo sapiens, UniProt P11712); experiment: Cocktail assay for CYPs in human liver microsomes, diclofenac 4′-hydroxylation (2C9); format: biochemical; details: 5 μM diclofenac, 10 min at 37° C.
T5 construct: 0.1 mg/mL protein human liver microsomes (BD Gentest); tissue BD Gentest; host or cells: human liver microsomes
Description: as §1, §2, §3

human CYP11B2 = molecular target: T6, human CYP11B2 (Homo sapiens, UniProt P19099); experiment: IC50 vs CYP11B2 by measurement of aldosterone synthesis in V79 cells; format: cell-based; details: V79 cells expressing human CYP11B2, 750 nM DOC, aldosterone HTRF
T6 construct: expressed in transfected cells
T6 sequence (P19099 25-503): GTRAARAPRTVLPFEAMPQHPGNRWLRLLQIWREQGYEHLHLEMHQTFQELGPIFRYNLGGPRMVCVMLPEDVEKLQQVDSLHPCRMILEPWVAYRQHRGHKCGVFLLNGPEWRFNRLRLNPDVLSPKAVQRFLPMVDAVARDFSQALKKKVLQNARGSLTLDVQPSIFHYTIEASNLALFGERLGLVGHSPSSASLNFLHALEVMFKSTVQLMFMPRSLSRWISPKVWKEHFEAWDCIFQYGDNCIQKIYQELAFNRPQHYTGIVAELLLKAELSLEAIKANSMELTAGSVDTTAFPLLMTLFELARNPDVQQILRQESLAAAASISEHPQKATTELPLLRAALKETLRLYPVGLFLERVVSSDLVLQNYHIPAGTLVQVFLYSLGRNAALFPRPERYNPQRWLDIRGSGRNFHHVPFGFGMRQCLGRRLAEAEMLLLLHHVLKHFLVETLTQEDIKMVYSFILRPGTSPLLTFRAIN
Description: as §4, §5, §6, §7

CYP2D6 = molecular target: T7, CYP2D6 (Homo sapiens, UniProt P10635); experiment: Cocktail assay for CYPs in human liver microsomes, dextromethorphan O-demethylation (2D6); format: biochemical; details: 5 μM dextromethorphan, 10 min at 37° C.
T7 construct: 0.1 mg/mL protein human liver microsomes (BD Gentest); tissue BD Gentest; host or cells: human liver microsomes
Description: as §1, §2, §3

T5 sequence (P11712 whole entry): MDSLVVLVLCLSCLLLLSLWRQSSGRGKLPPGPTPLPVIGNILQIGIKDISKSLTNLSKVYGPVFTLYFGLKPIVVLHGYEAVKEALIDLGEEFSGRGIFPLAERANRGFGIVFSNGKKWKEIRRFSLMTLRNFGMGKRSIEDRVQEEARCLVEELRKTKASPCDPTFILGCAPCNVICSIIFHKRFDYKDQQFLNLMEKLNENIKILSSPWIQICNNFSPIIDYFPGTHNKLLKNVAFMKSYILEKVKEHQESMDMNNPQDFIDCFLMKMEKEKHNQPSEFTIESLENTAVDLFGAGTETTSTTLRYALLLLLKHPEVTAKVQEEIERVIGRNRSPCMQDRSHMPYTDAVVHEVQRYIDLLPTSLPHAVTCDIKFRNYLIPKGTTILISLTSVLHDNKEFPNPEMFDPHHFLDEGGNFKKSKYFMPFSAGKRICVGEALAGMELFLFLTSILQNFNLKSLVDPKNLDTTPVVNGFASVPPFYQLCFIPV
T7 sequence (P10635 whole entry): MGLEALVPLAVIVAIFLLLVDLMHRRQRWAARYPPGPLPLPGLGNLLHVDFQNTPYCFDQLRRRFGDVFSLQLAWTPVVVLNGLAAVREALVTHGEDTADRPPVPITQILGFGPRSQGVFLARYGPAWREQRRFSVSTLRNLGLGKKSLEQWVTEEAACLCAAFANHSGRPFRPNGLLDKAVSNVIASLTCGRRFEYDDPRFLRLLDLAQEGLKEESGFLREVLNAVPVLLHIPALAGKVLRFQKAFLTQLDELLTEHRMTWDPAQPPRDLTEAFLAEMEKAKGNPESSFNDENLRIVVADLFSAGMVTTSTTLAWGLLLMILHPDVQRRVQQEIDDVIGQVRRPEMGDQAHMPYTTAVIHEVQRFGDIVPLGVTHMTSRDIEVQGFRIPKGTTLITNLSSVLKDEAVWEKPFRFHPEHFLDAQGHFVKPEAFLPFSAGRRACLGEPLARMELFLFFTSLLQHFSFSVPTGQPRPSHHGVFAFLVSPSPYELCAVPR
T3 sequence (P33261 whole entry): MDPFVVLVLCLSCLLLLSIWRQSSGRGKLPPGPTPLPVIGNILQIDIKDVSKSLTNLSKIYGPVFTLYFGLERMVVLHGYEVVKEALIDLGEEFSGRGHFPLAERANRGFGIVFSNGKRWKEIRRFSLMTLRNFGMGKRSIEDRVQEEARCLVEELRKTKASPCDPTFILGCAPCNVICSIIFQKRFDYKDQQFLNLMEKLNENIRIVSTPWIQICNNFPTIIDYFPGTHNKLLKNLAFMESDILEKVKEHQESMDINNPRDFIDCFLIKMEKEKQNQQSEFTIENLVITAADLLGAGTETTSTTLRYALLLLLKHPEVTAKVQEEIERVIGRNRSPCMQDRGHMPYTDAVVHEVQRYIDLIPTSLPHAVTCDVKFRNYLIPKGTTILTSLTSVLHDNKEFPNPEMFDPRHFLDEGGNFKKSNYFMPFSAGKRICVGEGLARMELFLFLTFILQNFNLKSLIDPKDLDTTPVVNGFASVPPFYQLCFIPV
T1 sequence (P08684 whole entry): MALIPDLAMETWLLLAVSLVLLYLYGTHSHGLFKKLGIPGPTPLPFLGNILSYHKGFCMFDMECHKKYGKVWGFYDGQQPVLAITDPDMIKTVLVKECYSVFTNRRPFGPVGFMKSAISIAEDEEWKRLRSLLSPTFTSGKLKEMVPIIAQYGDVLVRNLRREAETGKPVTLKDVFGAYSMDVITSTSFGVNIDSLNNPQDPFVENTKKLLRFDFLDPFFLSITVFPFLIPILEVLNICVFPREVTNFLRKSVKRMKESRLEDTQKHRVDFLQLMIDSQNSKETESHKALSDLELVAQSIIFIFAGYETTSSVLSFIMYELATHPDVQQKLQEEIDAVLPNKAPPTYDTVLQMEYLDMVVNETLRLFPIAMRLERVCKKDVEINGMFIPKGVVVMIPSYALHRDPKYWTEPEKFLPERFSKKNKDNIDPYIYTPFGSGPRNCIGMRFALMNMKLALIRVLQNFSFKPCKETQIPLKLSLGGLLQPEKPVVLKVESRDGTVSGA

SMILES | IC50 (CYP3A4) [µM] | IC50 (human CYP11B1) [µM] | IC50 (CYP2C19) [µM] | IC50 (CYP1A2) [µM] | IC50 (CYP2C9) [µM] | IC50 (human CYP11B2) [µM] | IC50 (CYP2D6) [µM]
C[C@H]1CN(C(=O)c2cncn2[C@@H](C)c2ccccc2-c2ccc(F)cc2)CC[C@H]1N1CCNC(=O)C1 [Compound 31] | 0.0097 | 28.1 | > 10 | > 10 | > 10 | > 50 | 9.6
C[C@@H](c1ccccc1-c1ccc(Cl)nc1)n1cncc1C(=O)N1CCC2NCCO[C@@H]2C1 (stereo partly shown) [Compound 41] | 0.0071 | 42.2 | > 10 | > 10 | > 10 | > 50 | 7.48
CO[C@H]1CN(C(=O)c2cncn2[C@@H](C)c2ccccc2-c2ccc(F)cc2)CC[C@@H]1N1CCOC1=O [Compound 33] | 0.0091 | > 50 | > 10 | > 10 | > 10 | 23.6 | 7.36
C[C@@H](c1ccccc1-c1ccc(F)cc1)n1cncc1C(=O)N1CCCC(N2CCC(C)(O)CC2)CC1 (single isomer, unassigned) [Compound 3b] | 0.0066 | 12.6 | > 10 | > 10 | > 10 | 42.6 | 2.39
CCOc1ncccc1-c1ccccc1[C@H](C)n1cncc1C(=O)N1CCC2NCCO[C@@H]2C1 (stereo partly shown) [Compound 40] | 0.0095 | 33.3 | > 10 | > 10 | > 10 | 25.9 | > 10
C[C@@H](c1ccccc1-c1ccc(F)cc1)n1cncc1C(=O)N1CCC(NC2COC[C@H]2O)CC1 (stereo partly shown) [Compound 24] | 0.0057 | > 50 | > 10 | > 10 | > 10 | > 50 | > 10

The remaining compounds from weak to strong by IC50 (CYP3A4), led by results:

IC50 (CYP3A4) [µM] | IC50 (human CYP11B1) [µM] | IC50 (CYP2C19) [µM] | IC50 (CYP1A2) [µM] | IC50 (CYP2C9) [µM] | IC50 (human CYP11B2) [µM] | IC50 (CYP2D6) [µM] | SMILES
0.0057 | 45.5 | > 10 | > 10 | > 10 | > 50 | > 10 | CCc1nnc2n1CCN(C(=O)c1cncn1[C@@H](C)c1ccccc1-c1ccc(F)cc1)C2 [Compound 7, (S)-(3-ethyl-5,6-dihydro-[1,2,4]triazolo[4,3-a]pyrazin-7(8H)-yl)(1-(1-(4′-fluoro-[1,1′-biphenyl]-2-yl)ethyl)-1H-imidazol-5-yl)methanone]
0.0055 | 20.4 | > 10 | > 10 | > 10 | 25.8 | 9.1 | COCc1ccccc1-c1ccccc1[C@H](C)n1cncc1C(=O)N1CCC2NCCO[C@@H]2C1 (stereo partly shown) [Compound 35]
0.0054 | 14.9 | > 10 | > 10 | > 10 | > 50 | > 10 | C[C@@H](c1ccccc1-c1ccc(F)cc1)n1cncc1C(=O)N1CCC(N2CCc3nccnc3C2)CC1 [Compound 28]
0.0053 | 22.8 | > 10 | > 10 | > 10 | > 50 | > 10 | C[C@@H](c1ccccc1-c1ccc(F)cc1)n1cncc1C(=O)N1CCC(N2CC[C@H](O)[C@@H](F)C2)CC1 [Compound 13]
0.0049 | 11.5 | > 10 | > 10 | > 10 | 31.6 | 8.6 | C[C@@H]1CN(C2CCN(C(=O)c3cncn3[C@@H](C)c3ccccc3-c3ccc(F)cc3)CC2)CC[C@@H]1O [Compound 17]
0.0037 | 6.03 | 9.54 | > 10 | > 10 | 36.3 | ≥ 10 | C[C@@H](c1ccccc1-c1ccc(F)cc1)n1cncc1C(=O)N1CCC(F)(CN2CCOCC2)CC1 [Compound 49]
0.0032 | 3.93 | > 10 | > 10 | > 10 | > 50 | > 10 | C[C@@H](c1ccccc1-c1ccc(F)cc1)n1cncc1C(=O)N1CCC[C@H]2OCCN[C@@H]2C1 [Compound 52]
